From patent publication US12398118B2, “Rho-associated protein kinase inhibitor, pharmaceutical composition comprising same, and use thereof” (BEIJING TIDE PHARMACEUTICAL CO., LTD., priority 2018, dated 2025)

How the values were obtained:
ROCK1 = ROCK1 (Homo sapiens (Human), UniProt Q13464); assay: ROCK1 kinase IC50, biological test method similar to ROCK2 assay; format: biochemical
Protocol: (§1) The kinase IC50 was determined by a commercialized CISBIO kinase detection kit, HTRF KinEASE-STK S2 kit (62ST2PEC). ROCK2 (01-119) employed in the reaction was purchased from Carna Biosciences.
(§2) Before the assay, the following working solutions as needed were formulated with corresponding reagents according to the instruction of the kinase detection kit: 1×kinase buffer, 5×STK-S2 substrate working solution (1.5 μM) and 5×ATP working solution (1.5 μM), 5×ROCK2 kinase working solution, 4×Streptavidin-XL665 working solution, and 4×STK-Ab-Cryptate 2 detection solution. Then the assay was performed according to the following procedure.
(§3) A solution of a compound at a concentration of 10000 nM was prepared with the 1×kinase buffer containing 2.5% DMSO. Gradient dilution of the solution of the compound was performed with the kinase buffer containing DMSO, so as to obtain solutions of a test compound at 9 different concentrations. In addition to wells of test compounds, a positive well (containing all the reagents except the compound) and a negative well (containing all the reagents except the test compound and kinase) were set. Except for the control wells (positive and negative wells), a solution of a test compound (4 μL) was added to each of the reaction wells, and a solution of 2.5% DMSO was added to the control wells. Then the substrate (2 μM, i.e., 2 μL 5×STK-S2 substrate working solution) was added to each of the reaction wells. The 5×ROCK2 kinase working solution (2 μL, containing 1.4 ng ROCK2 kinase) was added to each of the reaction wells except for the negative well, the volume of which was made up with the 1×kinase buffer (2 μL). The 5×ATP working solution (2 μL) was added to each of the reaction wells, and the mixtures were incubated at room temperature for 2 hours. After the kinase reaction was complete, the 4×Streptavidin-XL665 working solution was added to each of the reaction wells, the solutions were mixed, followed by immediate addition of the 4×STK-Ab-Cryptate 2 detection solution (5 μL), and the mixtures were incubated at room temperature for 1 hour. The fluorescence signal was read on ENVISION (Perkinelmer) (excitation wavelength: 320 inn, and emission wavelength: 665 nm and 615 nm). The inhibitory rate in each well was calculated based on the fluorescence intensity value: ER (Emission Ratio)_(fluorescence intensity at 665 nm/fluorescence intensity at 615 nm); inhibitory rate=(ERpositive−ERtest compound)/(ERpositive−ERnegative)*100%. Curves were plotted and fitted to obtain the median inhibitory concentration (IC50) of each teat compound with the PRISM 5.0 software. According to a biological test method similar to the above, the IC50 values of the compounds on ROCK1 were also tested.

ROCK2 = ROCK2 (Homo sapiens, UniProt O75116); assay: ROCK2 kinase IC50, HTRF KinEASE-STK S2 kit; format: biochemical; details: 2 hours at room temperature
Sequence of ROCK2 (O75116 whole entry, looked up): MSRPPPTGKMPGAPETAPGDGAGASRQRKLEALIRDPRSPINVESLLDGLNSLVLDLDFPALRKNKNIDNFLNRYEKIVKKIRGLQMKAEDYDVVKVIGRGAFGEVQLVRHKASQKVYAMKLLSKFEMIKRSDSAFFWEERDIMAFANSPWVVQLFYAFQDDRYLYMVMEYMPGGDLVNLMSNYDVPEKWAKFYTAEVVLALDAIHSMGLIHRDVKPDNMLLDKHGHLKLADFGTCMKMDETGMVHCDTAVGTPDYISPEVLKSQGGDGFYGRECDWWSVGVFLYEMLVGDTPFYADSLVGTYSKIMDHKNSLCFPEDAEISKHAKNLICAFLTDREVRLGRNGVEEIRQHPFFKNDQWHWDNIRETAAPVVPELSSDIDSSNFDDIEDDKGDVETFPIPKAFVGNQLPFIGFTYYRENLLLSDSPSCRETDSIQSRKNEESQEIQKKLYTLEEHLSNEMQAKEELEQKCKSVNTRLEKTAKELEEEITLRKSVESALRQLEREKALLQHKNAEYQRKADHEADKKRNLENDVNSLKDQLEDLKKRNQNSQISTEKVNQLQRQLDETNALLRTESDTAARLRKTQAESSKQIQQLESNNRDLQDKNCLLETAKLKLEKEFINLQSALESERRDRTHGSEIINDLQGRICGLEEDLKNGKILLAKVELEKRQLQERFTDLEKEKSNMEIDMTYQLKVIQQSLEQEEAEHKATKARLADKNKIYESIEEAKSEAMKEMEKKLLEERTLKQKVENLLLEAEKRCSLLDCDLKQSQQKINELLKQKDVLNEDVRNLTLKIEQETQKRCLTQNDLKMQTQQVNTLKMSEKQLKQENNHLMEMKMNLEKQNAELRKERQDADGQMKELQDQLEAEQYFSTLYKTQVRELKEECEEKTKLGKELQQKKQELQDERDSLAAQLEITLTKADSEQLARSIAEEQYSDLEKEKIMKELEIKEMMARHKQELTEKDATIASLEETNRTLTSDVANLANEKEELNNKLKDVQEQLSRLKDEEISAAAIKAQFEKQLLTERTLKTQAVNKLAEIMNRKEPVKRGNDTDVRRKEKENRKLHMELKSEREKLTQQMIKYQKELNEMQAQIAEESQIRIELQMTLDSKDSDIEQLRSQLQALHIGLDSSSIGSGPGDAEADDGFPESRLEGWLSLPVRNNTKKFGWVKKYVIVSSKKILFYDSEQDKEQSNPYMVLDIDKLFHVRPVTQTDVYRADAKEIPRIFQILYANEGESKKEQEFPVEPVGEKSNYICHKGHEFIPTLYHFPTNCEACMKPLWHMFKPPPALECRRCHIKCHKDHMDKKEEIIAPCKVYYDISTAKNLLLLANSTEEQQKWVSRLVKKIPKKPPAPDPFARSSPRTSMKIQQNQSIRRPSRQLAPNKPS
Protocol: as §1, §2, §3

Sequence of ROCK1 (Q13464 whole entry, species assumed): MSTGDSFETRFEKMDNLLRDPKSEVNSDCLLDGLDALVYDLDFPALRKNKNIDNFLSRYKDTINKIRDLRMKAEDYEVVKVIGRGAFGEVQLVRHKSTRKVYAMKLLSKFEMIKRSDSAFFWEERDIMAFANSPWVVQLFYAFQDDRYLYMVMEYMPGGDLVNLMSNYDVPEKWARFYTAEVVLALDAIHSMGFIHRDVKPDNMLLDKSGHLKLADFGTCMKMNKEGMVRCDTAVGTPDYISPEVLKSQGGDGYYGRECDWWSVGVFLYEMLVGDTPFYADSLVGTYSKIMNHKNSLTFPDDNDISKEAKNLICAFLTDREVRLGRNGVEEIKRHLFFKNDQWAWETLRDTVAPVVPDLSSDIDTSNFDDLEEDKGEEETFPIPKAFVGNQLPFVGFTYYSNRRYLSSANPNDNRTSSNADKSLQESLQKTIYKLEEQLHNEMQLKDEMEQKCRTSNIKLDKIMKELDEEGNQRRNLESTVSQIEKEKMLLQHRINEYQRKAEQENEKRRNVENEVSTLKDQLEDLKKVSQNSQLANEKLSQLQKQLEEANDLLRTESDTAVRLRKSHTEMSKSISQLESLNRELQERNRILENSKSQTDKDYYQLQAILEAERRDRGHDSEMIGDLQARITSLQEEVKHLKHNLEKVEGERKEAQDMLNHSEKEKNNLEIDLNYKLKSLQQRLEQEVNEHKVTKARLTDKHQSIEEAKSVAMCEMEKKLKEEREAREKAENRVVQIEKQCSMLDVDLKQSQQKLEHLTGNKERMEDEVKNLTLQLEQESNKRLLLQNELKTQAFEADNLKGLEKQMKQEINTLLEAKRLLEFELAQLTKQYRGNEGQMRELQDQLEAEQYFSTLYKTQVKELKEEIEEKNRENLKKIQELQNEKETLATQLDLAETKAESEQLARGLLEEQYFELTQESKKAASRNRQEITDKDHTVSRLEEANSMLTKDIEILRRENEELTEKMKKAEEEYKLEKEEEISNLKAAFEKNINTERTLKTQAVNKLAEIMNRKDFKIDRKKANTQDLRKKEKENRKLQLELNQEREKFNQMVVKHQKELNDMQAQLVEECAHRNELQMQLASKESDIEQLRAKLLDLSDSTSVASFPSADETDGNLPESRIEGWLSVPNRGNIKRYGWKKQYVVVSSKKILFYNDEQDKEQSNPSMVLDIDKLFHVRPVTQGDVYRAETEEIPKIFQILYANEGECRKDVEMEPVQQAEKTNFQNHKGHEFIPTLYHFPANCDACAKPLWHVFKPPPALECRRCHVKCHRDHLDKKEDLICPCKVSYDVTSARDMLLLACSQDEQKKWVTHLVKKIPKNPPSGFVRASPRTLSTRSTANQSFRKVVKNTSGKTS

Row | SMILES | IC50 (ROCK1) [µM] | IC50 (ROCK2) [nM]
1 | O=C(C1CC(F)(F)C1)N1Cc2ccc(-c3ncc(F)c(Nc4ccc5c(=O)[nH]ncc5c4)n3)cc2C1 [C12, 6-((2-(2-(3,3-difluoroo-cyclobutane-1-carbonyl)isoindolin-5-yl)-5-fluoro-pyrimidin-4-yl)amino) phthalazin-1(2H)-one] | > 10 | 17
2 | Cn1c(C(=O)N2CC(F)(F)C2)cc2ccc(-c3nccc(Nc4ccc5c(N)nccc5c4)n3)cc21 [C38, (6-(4-((1-aminoisoquinolin-6-yl)amino)pyrimidin-2-yl)-1-methyl-1H-indol-2-yl)(3,3-difluoroazetidin-1-yl)methanone] | > 10 | 264
3 | O=C(C1CC(F)(F)C1)N1Cc2ccc(-c3ncc(F)c(Nc4ccc5c(=O)[nH]cnc5c4)n3)cc2C1 [C6, 7-((2-(2-(3,3-difluoroo-cyclobutane-1-carbonyl)isoindolin-5-yl)-5-fluoro-pyrimidin-4-yl)amino) quinazolin-4(3H)-one] | > 10 | 76
4 | O=C(OC1CC(F)(F)C1)N1CCc2cc(-c3ncc(F)c(Nc4ccc5c(=O)[nH]ccc5c4)n3)ccc21 [C16] | > 10 | 19
5 | O=C(C1CC(F)(F)C1)N1CCc2cc(-c3ncc(F)c(Nc4ccc5c(=O)[nH]ccc5c4)n3)ccc21 [C15, 6-((2-(1-(3,3-difluoroo-cyclobutane-1-carbonyl)indolin-5-yl)-5-fluoro-pyrimidin-4-yl)amino) isoquinolin-1-(2H)-one] | > 10 | 79
6 | O=C1NCCc2cc(Nc3nc(-c4ccc5c(c4)CN(C(=O)N4CCC(F)(F)CC4)C5)ncc3F)ccc21 [C41, 6-((2-(2-(4,4-difluoro-piperidine-1-carbonyl)isoindolin-5-yl)-5-fluoro-pyrimidin-4-yl)amino)-3,4-dihydro-isoquinolin-1(2H)-one] | > 10 | 151
7 | O=C1NCCc2cc(Nc3nc(-c4cc5c(s4)CCN(C(=O)OC(C(F)(F)F)C(F)(F)F)C5)ncc3F)ccc21 [C61, 1,1,1,3,3,3-hexafluoropropan-2-yl 2-(5-fluoro-4-((1-oxo-1,2,3,4-tetrahydroisoquinolin-6-yl)amino)pyrimidin-2-yl)-6,7-dihydrothieno[3,2-c]pyridine-5(4H)-carboxylate] | > 10 | 170
8 | CC(CC(=O)N1CCc2cc(-c3ncc(F)c(Nc4ccc5c(c4)CCNC5=O)n3)ccc21)C(F)(F)F (centres unmarked) [C74, 6-((5-fluoro-2-(1-(4,4,4-trifluoro-3-methyl-butanoyl)indolin-5-yl)pyrimidin-4-yl)amino)-3,4-dihydro-isoquinolin-1(2H)-one] | > 10 | 54
9 | O=C1NCCc2cc(Nc3nc(-c4ccc5c(c4)CN(C(=O)N4CC(F)(F)C4)C5)ncc3F)ccc21 [C81, 6-((2-(2-(3,3-difluoro-azetidine-1-carbonyl)isoindolin-5-yl)-5-fluoro-pyrimidin-4-yl)amino)-3,4-dihydro-isoquinolin-1(2H)-one] | > 10 | 129
10 | O=C(CCC(F)(F)F)N1CCc2sc(-c3ncc(F)c(Nc4ccc5c(=O)[nH]ccc5c4)n3)cc2C1 [C68, 6-((5-fluoro-2-(5-(4,4,4-trifluorobutanoyl)-4,5,6,7-tetrahydrothieno[3,2-c]pyridin-2-yl)pyrimidin-4-yl)amino)isoquinolin-1(2H)-one] | > 10 | 9
11 | CC(OC(=O)N1CCc2cc(-c3ncc(F)c(Nc4ccc5c(=O)[nH]ccc5c4)n3)ccc2C1)C(F)(F)F (centres unmarked) [C39, 1,1,1-trifluoro-propan-2-yl 6-(5-fluoro-4-((1-oxo-1,2-dihydro-isoquinolin-6-yl)amino)pyrimidin-2-yl)-3,4-dihydro-isoquinolin-2(1H)-carboxylate] | > 10 | 102
12 | O=C1NCCc2cc(Nc3nc(-c4cc5c(s4)CCN(C(=O)CCC(F)(F)F)C5)ncc3F)ccc21 [C69, 6-((5-fluoro-2-(5-(4,4,4-trifluorobutanoyl)-4,5,6,7-tetrahydrothieno[3,2-c]pyridin-2-yl)pyrimidin-4-yl)amino)-3,4-dihydroisoquinolin-1(2H)-one] | > 10 | 45
13 | O=C(OC1CCOC1)N1Cc2ccc(-c3ncc(F)c(Nc4ccc5c(=O)[nH]ccc5c4)n3)cc2C1 (centres unmarked) [C19, tetra-hydrofuran-3-yl 5-(5-fluoro-4-((1-oxo-1,2-dihydro-isoquinolin-6-yl)amino)pyrimidin-2-yl) isoindoline-2-carboxylate] | > 10 | 25
14 | CC(OC(=O)N1CCc2sc(-c3ncc(F)c(Nc4ccc5c(=O)[nH]ccc5c4)n3)cc2C1)C(F)(F)F (centres unmarked) [C46, 1,1,1-trifluoropropan-2-yl 2-(5-fluoro-4-((1-oxo-1,2-dihydroisoquinolin-6-yl)amino)pyrimidin-2-yl)-6,7-dihydrothieno[3,2-c]pyridine-5(4H)-carboxylate] | > 10 | 21
15 | O=C(C1CC(F)(F)C1)N1Cc2ccc(-c3ncc(F)c(Nc4ccc5c(=O)[nH]cc(Cl)c5c4)n3)cc2C1 [C5, 4-chloro-6-((2-(2-(3,3-difluoroo-cyclobutane-1-carbonyl)isoindolin-5-yl)-5-fluoro-pyrimidin-4-yl)amino) isoquinolin-1(2H)-one] | > 10 | 13
16 | O=C(C1CC(F)(F)C1)N1Cc2ccc(-c3nccc(Nc4ccc5c(=O)[nH]ccc5c4)n3)cc2C1 [C54, 6-((2-(2-(3,3-difluoroocyclobutane-1-carbonyl)isoindolin-5-yl)pyrimidin-4-yl)amino)isoquinolin-1(2H)-one] | > 10 | 17
17 | CC(C)(C)OC(=O)N1Cc2ccc(-c3ncc(F)c(Nc4ccc5c(=O)[nH]ccc5c4)n3)cc2C1 [C11, tert-butyl 5-(5-fluoro-4-((1-oxo-1,2-dihydro-isoquinolin-6-yl)amino)pyrimiclin-2-yl) isoindoline-2-carboxylate] | > 10 | 34
18 | CC(OC(=O)N1CCc2cc(-c3nccc(Nc4ccc5c(c4)CCNC5=O)n3)ccc2C1)C(F)(F)F (centres unmarked) [C40, 1,1,1-trifluoro-propan-2-yl 6-(4-((1-oxo-1,2,3,4-tetrahydro-isoquinolin-6-yl)amino)pyrimidin-2-yl)-3,4-dihydro-isoquinolin-2(1H)-carboxylate] | > 10 | 270
19 | O=C(N1Cc2ccc(-c3ncc(F)c(Nc4ccc5c(=O)[nH]ccc5c4)n3)cc2C1)C(F)(F)F [C62] | > 10 | 139
20 | CC(C)(C)OC(=O)N1Cc2ccc(-c3ncc(F)c(Nc4ccc5c(c4)CCNC5=O)n3)cc2C1 [C76, tert-butyl 5-(5-fluoro-4-((1-oxo-1,2,3,4-tetrahydro-isoquinolin-6-yl)amino)pyrimidin-2-yl) isoindoline-2-carboxylate] | > 10 | 49
21 | O=C1NCc2cc(Nc3nc(-c4ccc5c(c4)CN(C(=O)C4CC(F)(F)C4)C5)ncc3F)ccc21 [C3, 5-((2-(2-(3,3-difluoroo-cyclobutane-1-carbonyl)isoindolin-5-yl)-5-fluoro-pyrimidin-4-yl)amino) isoindolin-1-one] | > 10 | 287
22 | O=C(C1CC(F)(F)C1)N1Cc2ccc(-c3ncc(F)c(Nc4ccc5c(=O)[nH]ccc5c4)n3)cc2C1 [C8, 6-((2-(2-(3,3-difluoroo-cyclobutane-l-carbonyl)isoindolin-5-yl)-5-fluoro-pyrimidin-4-yl)amino) isoquinolin-1(2H)-one] | > 10 | 16
23 | CC(CC(=O)N1Cc2ccc(-c3ncc(F)c(Nc4ccc5c(c4)CCNC5=O)n3)cc2C1)C(F)(F)F (centres unmarked) [C67, 6-((5-fluoro-2-(2-(4,4,4-trifluoro-3-methyl-butanoyl)isoindolin-5-yl)pyrimidin-4-yl)amino)-3,4-dihydro-isoquinolin-1(2H)-one] | > 10 | 101
24 | CC(CC(=O)N1Cc2ccc(-c3nccc(Nc4ccc5c(=O)[nH]ccc5c4)n3)cc2C1)C(F)(F)F (centres unmarked) [C48, 6-((2-(2-(4,4,4-trifluoro-3-methyl-butanoyl)isoindolin-5-yl)pyrimidin-4-yl)amino) isoquinolin-1(2H)-one] | > 10 | 13
25 | O=C1NCCc2cc(Nc3nc(-c4ccc5c(c4)CN(C(=O)CCC(F)(F)F)C5)ncc3F)ccc21 [C64, 6-((5-fluoro-2-(2-(4,4,4-trifluoro-butanoyl)isoindolin-5-yl)pyrimidin-4-yl)amino)-3,4-dihydro-isoquinolin-1(2H)-one] | > 10 | 109
